Test systems include A549; UACC-62; SW-620; OVCAR-3; HCT-116; 786-0; SF-268; Malme-3M; HOP-62; ACHN; NCI-H23; HCT-15; LOX IMVI; OVCAR-8; HCC 2998; SK-MEL-5; MDA-N; PC-3; MDA-MB-435.
Assay in all cases: NCI-60 cell line screen, 48 h

We go through nine molecules from ChEMBL document CHEMBL1201862, “PubChem BioAssay data set” (2004).

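Dose response: 5 concentrations. Exposure: 48 h. Format: 96-well plates. Endpoint: linear interpolation; highest concentration if not reached. GI50: concentration for 50% inhibition of growth.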 Activity calls are given as the source filed them. Cut-off read from the data, not from the text of the source: active = GI50 up to about 1.1 µM and inactive = higher.

With `CC1=C(C(=O)NCc2ccccc2)C(c2ccccc2[N+](=O)[O-])C(C(=O)NCc2ccccc2)=C(C)N1`, the GI50 in the test on A549 was 25.9 µM (inactive); in the test on UACC-62, 8.49 µM (inactive); in the test with SW-620, 14.5 µM (inactive); in the test on OVCAR-3, 5.31 µM (inactive); in the test on HCT-116 it was 6.75 µM (inactive); with 786-0 it was 12.8 µM (inactive). For the same molecule, the GI50 in the test on SF-268 is 9.18 µM (inactive); in the test on Malme-3M, 13.7 µM (inactive); in the test on HOP-62, 20.6 µM (inactive); with ACHN it was 13.9 µM (inactive); in the test on NCI-H23 it was 12.3 µM (inactive); in the test with HCT-15, 7.8 µM. Further, the GI50 is 7.24 µM (inactive) with LOX IMVI, 13.1 µM (inactive) with OVCAR-8, 17.3 µM (inactive) in the test on HCC 2998 and 13.1 µM (inactive) in the test with SK-MEL-5.
On to `CC(C)(C)c1ccc2c(c1)S(=O)(=O)Nc1cccc(c1)NS(=O)(=O)c1cc(C(C)(C)C)ccc1OCCOCCO2`, for which the GI50 in the test on A549, with UACC-62, in the test with SW-620, with OVCAR-3, with HCT-116 and in the test on 786-0 was > 100 µM (inactive) throughout. Moreover, the GI50 in the test on SF-268 is > 100 µM (inactive); with Malme-3M, > 100 µM (inactive); in the test with HOP-62, > 100 µM (inactive); in the test with ACHN it was > 100 µM (inactive); in the test on NCI-H23 it was > 100 µM (inactive); in the test on HCT-15, > 100 µM. In addition, the GI50 in the test with LOX IMVI, in the test with OVCAR-8, in the test on HCC 2998 and in the test with SK-MEL-5 was > 100 µM (inactive) in each case.
As to `c1ccc2c(c1)C1=NCCN1c1ccccc1-2`, the GI50 was 3.97 µM (inactive) in the test with A549; 3.37 µM (inactive) with UACC-62; 2.37 µM (inactive) with SW-620; 2.95 µM (inactive) with OVCAR-3; 1.23 µM (inactive) with HCT-116; 2.6 µM (inactive) with 786-0. The GI50 was 3.46 µM (inactive) in the test on SF-268; 2.64 µM (inactive) in the test with Malme-3M; 3.25 µM (inactive) in the test with HOP-62; 2.11 µM (inactive) with ACHN; 2.72 µM (inactive) in the test with NCI-H23; 3.1 µM in the test on HCT-15. Further, the GI50 in the test with LOX IMVI is 2.95 µM (inactive); in the test with OVCAR-8 it was 2.51 µM (inactive); with HCC 2998 it was 4.46 µM (inactive); in the test on SK-MEL-5 it was 2.49 µM (inactive).
Regarding `CCOC(=O)C(C)(C)Oc1ccc(/C=C/C(=O)c2ccc(Cl)cc2)cc1`, the GI50 in the test on A549 was 33.5 µM (inactive); in the test with UACC-62, 20.6 µM (inactive); with SW-620 it was 13.9 µM (inactive); in the test with OVCAR-3, 16.3 µM (inactive); in the test with HCT-116, 16.4 µM (inactive); in the test with 786-0, 17.2 µM (inactive). Besides, the GI50 with SF-268 was 19.1 µM (inactive); with Malme-3M it was 18.4 µM (inactive); with HOP-62, 39.4 µM (inactive); with ACHN, > 10 µM (inactive); with NCI-H23, 18.6 µM (inactive); in the test with HCT-15, 17.2 µM. The GI50 in the test on LOX IMVI is 16.6 µM (inactive); in the test on OVCAR-8, 21.6 µM (inactive); in the test with HCC 2998, > 10 µM (inactive); in the test with SK-MEL-5, 14.9 µM (inactive).
`OC1OC2COC(c3ccccc3)OC2C(O)C1O` (stereo not drawn): the GI50 in the test on A549, in the test with UACC-62, in the test with SW-620, in the test with OVCAR-3, in the test on HCT-116 and in the test on 786-0 was > 100 µM (inactive) each time. Moreover, the GI50 is > 100 µM (inactive) with SF-268; > 100 µM (inactive) in the test with Malme-3M; > 100 µM (inactive) in the test with HOP-62; > 100 µM (inactive) with ACHN; > 100 µM (inactive) in the test with NCI-H23; > 100 µM in the test with HCT-15. Also, the GI50 in the test with LOX IMVI, with OVCAR-8, in the test with HCC 2998 and in the test on SK-MEL-5 was > 100 µM (inactive) throughout.
On to `CCP(=O)(OC)C1=CCN(C(=O)OCC[Si](C)(C)C)CC1` (stereo not drawn), for which the GI50 in the test on MDA-N, in the test on A549, in the test on PC-3, in the test with UACC-62, in the test with SW-620 and with OVCAR-3 was > 100 µM (inactive) throughout. Further, the GI50 in the test with 786-0, in the test with SF-268, in the test with Malme-3M, in the test on HOP-62, in the test on ACHN and in the test on NCI-H23 was > 100 µM (inactive) in each case. The GI50 in the test on HCT-15 was > 100 µM; in the test on LOX IMVI, > 100 µM (inactive); in the test on MDA-MB-435, > 100 µM (inactive); with OVCAR-8 it was > 100 µM (inactive); in the test with HCC 2998, > 100 µM (inactive); with SK-MEL-5, > 100 µM (inactive).
On to `O=C(/C=C/c1ccccc1O)C(c1ccccc1)c1ccccc1`, for which the GI50 in the test on A549 was > 100 µM (inactive); in the test with UACC-62, > 100 µM (inactive); with SW-620 it was 13.1 µM (inactive); in the test on OVCAR-3 it was > 100 µM (inactive); in the test on HCT-116, > 100 µM (inactive); in the test with 786-0, 51.1 µM (inactive). Moreover, the GI50 in the test with SF-268 was > 100 µM (inactive); in the test on Malme-3M, > 100 µM (inactive); in the test on HOP-62, > 100 µM (inactive); in the test with ACHN it was > 100 µM (inactive); in the test with NCI-H23, > 100 µM (inactive); with HCT-15 it was > 100 µM. Besides, the GI50 was 24.1 µM (inactive) with LOX IMVI, > 100 µM (inactive) in the test with OVCAR-8, > 100 µM (inactive) with HCC 2998 and > 100 µM (inactive) with SK-MEL-5.
Take `Ic1ncnc2c1ncn2C1CCCO1` (stereo not drawn): the GI50 in the test on A549, with UACC-62, in the test with SW-620, in the test with OVCAR-3, in the test with HCT-116 and in the test on 786-0 was > 100 µM (inactive) each time. In addition, the GI50 in the test on SF-268 is > 100 µM (inactive); in the test with Malme-3M, > 100 µM (inactive); in the test on HOP-62, > 100 µM (inactive); in the test with ACHN, > 100 µM (inactive); in the test with NCI-H23, > 100 µM (inactive); with HCT-15, > 100 µM. In addition, the GI50 in the test with LOX IMVI, with OVCAR-8, in the test with HCC 2998 and with SK-MEL-5 was > 100 µM (inactive) in each case.
For `CC(C)[Si](Oc1cc2c3c(ccc2c(O)c1[C@@H](C)CO[Si](C)(C)C(C)(C)C)C(C)(C)CCC3)(C(C)C)C(C)C`, the GI50 in the test on MDA-N is > 100 µM (inactive); with A549, > 100 µM (inactive); with PC-3, 74.6 µM (inactive); in the test with UACC-62 it was > 100 µM (inactive); in the test with SW-620, > 100 µM (inactive); with OVCAR-3, 86.1 µM (inactive). Moreover, the GI50 in the test with HCT-116 was > 100 µM (inactive); with 786-0 it was > 100 µM (inactive); in the test with SF-268, > 100 µM (inactive); in the test with Malme-3M it was 22.6 µM (inactive); with HOP-62 it was > 100 µM (inactive); in the test with ACHN, > 100 µM (inactive). Besides, the GI50 is > 100 µM (inactive) in the test with NCI-H23; > 100 µM with HCT-15; 64.4 µM (inactive) in the test on LOX IMVI; > 100 µM (inactive) in the test with MDA-MB-435; > 100 µM (inactive) with OVCAR-8; 23.8 µM (inactive) with SK-MEL-5.
